In US20210171579A1, “INHIBITOR USING PLANT CYCLOPEPTIDE AS EFFECTIVE COMPONENT FOR LIPID METABOLIC ABNORMALITIES IN CANCER CELLS AND USES THEREOF” (CHINA PHARMACEUTICAL UNIVERSITY, priority 2017, published 2021):

Experiments:
[1] = test system: human liver cancer HepG2 cell line; experiment: Growth inhibition of human liver cancer cells, SRB method; assay type: cell-based; details: HepG2, 24 h treatment, FIG. 1
Method: (§1) In-vivo antineoplastic activity and activity of inhibiting abnormal lipid metabolism of tumors of the RAs are verified by establishing a nude mouse subcutaneously transplanted tumor model with liver cancer cells.
Cell viability is determined by adopting an SRB method. An overnight human liver cancer HepG2 cell line (purchased from the Cell Bank of Committee on Type Culture Collection of Chinese Academy of Sciences) is cultivated by a 10% FBS medium. Pancreatin is added for digestion to form a cell suspension, which is inoculated onto a 96-well plate according to an appropriate concentration at 100 μl/well. Cultivation is conducted in a CO2 incubator for 24 h until cells adhere to walls completely. Different final concentrations of RA-XII are added, after acting for 24 h, 50 μl of a 4° C. pre-cooled TCA solution (30%, w/v) is added into each well for fixing of the cells, and a final concentration of the TCA solution is 10%. The 96-well plate is transferred into a 4° C. refrigerator for fixing for 1 h after still standing for 5 min. The 96-well plate is taken out, washed 5 times with deionized water, and aired at a room temperature. […] Optical densities are determined at 540 nm by adopting a microplate reader.

[2] = test system: human liver cancer HepG2 cell line; experiment: Indexes related to lipid metabolism in human liver cancer cells (commercial kits); assay type: cell-based; details: HepG2, 24 h treatment, FIG. 2
Method: as §1
An overnight human liver cancer HepG2 cell line is cultivated by a 10% FBS medium. Pancreatin is added for digestion to form a cell suspension, which is inoculated onto a 6-well plate according to an appropriate concentration. After 24 h, the RA-V or the RA-XII is added for treatment for 24 h. Digestion is conducted with the pancreatin. Centrifugation is conducted for 5 to 10 min at a room temperature and 2000 rpm, and cells are collected. The cells are resuspended once with pre-cooled 1×PBS (4° C.), centrifuged for 5 to 10 min at 2000 rpm, and washed. By adopting commercial kits, contents of total cholesterol and triglycerides in the cells are detected through a single reagent GPO-PAP method respectively, and contents of low-density lipoproteins and high-density lipoproteins in the cells are detected through a double-reagent direct method (the commercial kits are purchased from the Nanjing Jiancheng Bioengineering Institute, with article numbers of A111-1, A110-1, A113-1 and A112-1 respectively).

[3] = test system: human liver cancer HepG2 cell line; experiment: Lipid droplet formation in human liver cancer cells, Oil Red staining; assay type: cell-based; details: HepG2, 24 h treatment, FIG. 3
Method: as §1
0.5 g of pre-ground and pre-crushed dried Oil Red powder (purchased from Sigma Company) is weighed, and dissolved in a small amount of isopropanol. Then isopropanol is added to reach 100 ml. A solution is sealed in a brown bottle (or packaged with tin foil paper for avoiding light) for preservation at 4° C. as a storage solution, which may be preserved for a long time. When using, 6 ml of the solution is taken, and 4 ml of tri-distilled water is added to be evenly mixed. The mixed solution is filtered by qualitative filter paper into a working solution, which is used up within a few hours after diluted. An overnight human liver cancer HepG2 cell line is cultivated by a 10% FBS medium. Pancreatin is added for digestion to form a cell suspension, which is inoculated onto a 24-well plate according to an appropriate concentration. After 24 h, the RA-XII is added for treatment for 24 h. A cultivation solution is poured out carefully and slowly. Fixing is then conducted with 4% paraformaldehyde for 30 min. Staining is conducted with an Oil Red working solution for about 30 min at the room temperature. Washing is conducted with PBS twice. Pictures are taken under a microscope.

[4] = test system: HepG2 subcutaneously transplanted tumors; experiment: In-vivo antineoplastic test, nude mouse subcutaneously transplanted tumor model; parameters: species or system BABL/c nude mice; details: caudal vein dosing every other day, 21 days, FIG. 4
Method: as §1
(§2) HepG2 is diluted into […] with a serum-free MEM. 100 μL of cell suspension is taken and inoculated to left armpits of BABL/c nude mice subcutaneously, and grows for 7 days to form a tumor-bearing mouse model. Inoculated and well-grown tumor-bearing mice are grouped at random, and dosed with the RA-XII once through caudal veins every other day. While dosing, sizes of tumors are measured with a vernier caliper (a tumor volume=a long diameter×a short diameter^2/2), and weights of the nude mice are recorded and counted. The used animals are killed after dosed for 21 days, and tumors are peeled and photographed.

[5] = Weights of nude mice in the in-vivo antineoplastic test; parameters: species or system BABL/c nude mice; details: caudal vein dosing every other day, 21 days, FIG. 4
Method: as §2

[6] = test system: tissues of HepG2 subcutaneously transplanted tumors; experiment: Indexes related to lipid metabolism in tissues of subcutaneously transplanted tumors; assay type: in vivo, BABL/c nude mice; details: tumor tissues from Embodiment 4, RIPA lysate, FIG. 5
Method: as §2
Tissues of the tumors obtained in Embodiment 4 are taken and lysed with an RIPA lysate. Then contents of cholesterol, triglycerides, low-density lipoproteins and high-density lipoproteins are detected by adopting commercial kits (specific methods are the same as Embodiment 2).

[7] = test system: tissues of HepG2 subcutaneously transplanted tumors; experiment: Lipid droplets in tissues of subcutaneously transplanted tumors, Oil Red staining; assay type: in vivo, BABL/c nude mice; details: tumor tissues from Embodiment 4, Oil Red staining of cryosections, FIG. 6
Method: as §2
Tissues of the tumors obtained in Embodiment 4 are taken and embedded by OCT and then rapidly cooled. Cryostat serial sectioning is conducted with a thickness being 20 μm. Drying is conducted for 30 min at a room temperature. Fixing is conducted with 4% paraformaldehyde for 30 min. Staining is conducted with an Oil Red working solution for about 30 min at the room temperature. Washing is conducted with PBS twice. Sections are sealed with a glycerin jelly. Overnight drying is conducted, and pictures are taken under a microscope.

Row | Structure (SMILES) | proliferation of tumor cells (cell viability, SRB) [1] | high-density lipoproteins content in cells [2] | low-density lipoproteins content in cells [2] | total cholesterol content in cells [2] | triglycerides content in cells [2] | number of lipid droplets in tumor cells [3] | growth speed of subcutaneously transplanted tumors (tumor volume) [4] | weights of the nude mice [5] | high-density lipoproteins in tumor tissues [6] | low-density lipoproteins in tumor tissues [6] | total cholesterol in tumor tissues [6] | triglycerides in tumor tissues [6] | number of lipid droplets in tumor tissues [7]
1 | COc1ccc(C[C@H]2C(=O)N[C@@H](C)C(=O)N(C)C3Cc4ccc(cc4)Oc4cc(ccc4O[C@@H]4OC(CO)[C@@H](O)[C@H](O)C4O)C[C@@H](C(=O)N[C@H](C)C(=O)N[C@@H](C)C(=O)N2C)N(C)C3=O)cc1 (some centres unmarked) [RA-XII] | inhibits rapid proliferation of tumor cells | no obvious influence | obviously inhibit expression | obviously inhibit expression | obviously inhibit expression | obviously reduce the number of the lipid droplets | obviously reduce a growth speed | no obvious influence | no obvious influence | obviously inhibit expression | obviously inhibit expression | obviously inhibit expression | obviously reduce the number of the lipid droplets
2 | COc1ccc(C[C@H]2C(=O)N[C@@H](C)C(=O)N(C)C3Cc4ccc(cc4)Oc4cc(ccc4O)C[C@@H](C(=O)N[C@H](C)C(=O)N[C@@H](C)C(=O)N2C)N(C)C3=O)cc1 [RA-V] |  | no obvious influence | obviously inhibit expression | obviously inhibit expression | obviously inhibit expression |  |  |  |  |  |  |  | 
